Experimental data taken from patent US20250152535A1, “COMPOSITION FOR PREVENTING OR IMPROVING HEPATIC DYSFUNCTION” (KYOWA HAKKO BIO CO., LTD., priority 2022, published 2025).

What was measured:
[1] = test system: ICR mice; assay: Carbon tetrachloride (CCl4)-induced hepatic dysfunction model in mice, blood plasma AST and ALT levels; type: in vivo; conditions: male ICR mice; 400 mg/kg/day once-daily oral for three days, then CCl4 0.04 mL/kg i.p.; blood 16 hours after CCl4; compared with group 2 (vehicle+CCl4)
Experimental: GSSSG dihydrate prepared by the method described in Patent Literature 1 was crushed in a mortar. To 10 mL of distilled water, the crushed GSSSG dihydrate (200 mg in terms of anhydride) was added and suspended. Then, twice as much sodium hydrogen carbonate as the GSSSG anhydride was added thereto on a molar basis, and the resultant mixture was mixed for 10 minutes. The obtained GSSSG solution was further diluted with distilled water to obtain administration samples 3 and 4. In addition, reduced glutathione (GSH) or oxidized glutathione (GSSG), manufactured by KYOWA HAKKO BIO Co., Ltd., was dissolved in distilled water to obtain each of administration samples 1 and 2.
Four-week-old male ICR mice (Charles River Laboratories Japan, Inc.) were acclimated for 1 week and then subjected to a test at 5 weeks of age. During the test period, the mice were allowed to freely drink water regarding water, allowed to freely ingest a solid feed CE-2 (CLEA Japan, Inc.), and kept at a temperature of 20° C. to 24° C., a humidity of 50% to 60%, and for 12 hours of light-dark cycle. Thereafter, the mice were divided into groups 1 to 6 so that each group included 3 or 4 mice. • Group 1: Normal (vehicle-no symptoms induced) • Group 2: Vehicle+CCl4 • Group 3: GSH 400 mg/kg/day (administration sample 1)+CCl4 • Group 4: GSSG 400 mg/kg/day (administration sample 2)+CCl4 • Group 5: GSSSG 100 mg/kg/day (administration sample 3)+CCl4
Group 6: GSSSG 400 mg/kg/day (administration sample 4)+CCl4
After the group dividing, the vehicle, the administration sample 1, the administration sample 2, the administration sample 3, or the administration sample 4 was subjected to an once-daily forced oral administration at the above-described dose for a total of three consecutive days. After 30 minutes from the final oral administration, CCl4 (0.04 mL/kg) suspended in olive oil was intraperitoneally administered to induce hepatic dysfunction.

[2] = test system: HepG2 cells; assay: Protective effect against hepatocellular damage by hydrogen peroxide in HepG2 cells, cell survival rate by MTT assay; type: cell-based, human; conditions: for Cell survival rate (%): then 0.1 mM hydrogen peroxide for 2 hours, control group = 100; for cell survival rate as compared with the solvent addition group: sample added before 0.1 mM hydrogen peroxide
Experimental: A human hepatoma-derived cell line (HepG2: HB-8065™, Lot number: 70029112) was obtained from American Type Culture Collection, and Dulbecco's Modified Eagle Medium containing 10% FBS (Thermo Fisher Scientific, Inc.) was used as a basal medium. Cells were cultured in an incubator of 37° C. and 5% CO2, and the cells that had been passaged to 16 to 25 generations were subjected to experimentation. The used GSSG and GSSSG were those manufactured by KYOWA HAKKO BIO Co., Ltd.
0.15 mL of a cell suspension obtained by adjusting the initial cell concentration to 2×10^4 cells/mL was seeded in a 96-well plate (Thermo Fisher Scientific, Inc.).
After the culturing for 4 hours from the seeding, GSSSG (for the addition group of the final concentration of 0.05 mM and the addition group of the final concentration of 0.1 mM) was added to the culture medium. In addition, apart from this, a group in which only the solvent of GSSSG (PBS in which sodium hydrogen carbonate was dissolved so that the concentration thereof was 15.8 mM) was added was defined as a solvent addition group. After the culturing for 20 hours from the sample addition, the culture medium was replaced with a culture medium (not containing GSSSG) obtained by adding hydrogen peroxide solution (FUJIFILM Wako Pure Chemical Corporation) to the above-described sample addition group and the solvent addition group so that the final concentration thereof was 0.1 mM, and then hepatocellular damage was induced. The control group was the group in which the same amount of PBS was added to the solvent addition group instead of hydrogen peroxide solution. After the culturing for 2 hours from the addition of hydrogen peroxide solution or PBS, the cell survival rate was measured according to the MTT assay, and the degree of hepatocellular damage was evaluated. For GSSG as well, an experiment was carried out in the same manner as in the GSSSG, except that PBS was used as a solvent.

| Compound | blood plasma ALT level [1] | blood plasma AST level [1] | Cell survival rate (%) ([2]; sample 0.05 mM for 20 hours) | Cell survival rate (%) ([2]; sample 0.1 mM for 20 hours) | cell survival rate as compared with the solvent addition group [2] |
| --- | --- | --- | --- | --- | --- |
| N[C@@H](CCC(=O)N[C@@H](CS)C(=O)NCC(=O)O)C(=O)O [GSH, reduced glutathione] | significant suppression | significant suppression | – | – | – |
| N[C@@H](CCC(=O)N[C@@H](CSSSC[C@H](NC(=O)CC[C@H](N)C(=O)O)C(=O)NCC(=O)O)C(=O)NCC(=O)O)C(=O)O [GSSSG, glutathione trisulfide] | tendency of the suppression | tendency of the suppression | 36.9% | 49.7% | improved survival rate |
| oxidized glutathione [GSSG] | significant suppression | significant suppression | 39.4% | 38.4% | significantly decreased |
